Assay results reported in patent US11779625B2, “Composition and application thereof in preparing product for protecting mitochondria” (INFINITUS (CHINA) COMPANY LTD., priority 2021, dated 2023).
Entries after “also recorded” stand apart in the source; their conditions may differ.

Key:
[1] = test system: Slc25a46−/− mouse embryonic fibroblasts; assay: MTT in-vitro cytotoxicity experiment (cell morphology and viability), Slc25a46−/− cells; type: cell-based; conditions: 24 hours; for effect on cell viability/growth (MTT): Slc25a46−/− cells
Experimental: (§1) The MEF cells were derived from wild-type fetal mice (WT) and Slc25a46 homozygous fetal mice (Slc25a46−/−). Pregnant mice were anesthetized and killed, and dissected to obtain mouse embryos, and bodies of fetal mice were obtained, and washed with PBS for 3 times. Clean mouse embryonal tissues were transferred into a culture dish, and cut into pieces, 2 mL of trypsin was added into the tissue pieces, and continuously cut into pieces for several minutes. Then, 5 mL of trypsin was added into the culture dish above, and blown up and down with a straw vigorously, and the culture dish was put into an incubator for incubation for 20 minutes to 30 minutes. The tissues cut into pieces were taken out of the incubator, and added with about 20 mL of MEF medium. A tissue mixture was transferred into each flask and placed into an incubator for overnight incubation. Then, growth of fibroblasts was observed regularly and the culture medium was replaced. When the fibroblasts covered 90% of the culture flask, the mouse embryonic fibroblasts were collected for subsequent experiment.
(§2) 100 uL of WT mouse cells and Slc25a46−/− mouse cells with a cell concentration of 3.5×10^5 cells/mL were inoculated into a 96-well plate, and cultured in a CO2 incubator at 37° C. for 24 hours. […] An absorbance at 570 nm was detected with a multi-functional microplate scanner, and effects of test solutions with different concentrations on cell viability were calculated with a blank control as 100%.

[2] = test system: WT mouse embryonic fibroblasts; assay: MTT in-vitro cytotoxicity experiment (cell morphology and viability), WT cells; type: cell-based; conditions: 24 hours; for effect on cell viability/growth (MTT): WT cells
Experimental: as §1, §2

Slc25a46−/− mice [3] = assay: SOD enzyme activity in liver tissues after intragastric intervention; type: in vivo, mouse; conditions: intragastric every day for 10 days, Example 400, Comparative example 1 100, 2 244, 3 56, 4 500 mg/kg
Experimental: Animal experimental subjects were Slc25a46 knockout (Slc25a46−/−) mice of 1 month old, which were divided into a blank solvent control group (3 mice) and experimental groups (4 mice in each group). Under a same SPF level, the mice were fed with a full-nutrient feed prepared according to an AIN93G formula of Jiangsu Xietong Biology Co., Ltd., and subjected to intragastric administration every day, which lasted for a period of 10 days. […] The blank solvent control group was administered intragastrically with solvent water. After the intragastric administration experiment, brain tissues and liver tissues of the mice were collected for physiological and biochemical detections respectively, and an oxidative stress level and an ability of delaying aging were analyzed.
9 times volume of ice normal saline was added according to a ratio of a tissue weight (g) to a tissue volume (ml) of 1:9, and the tissues were cut into pieces with a surgical scissor, prepared into 10% tissue homogenate with a homogenizer (the homogenation lasted 10 seconds once, and was continuously carried out for 3 times to 5 times at intervals of 5 seconds on ice), and centrifuged at 2500 rpm to 3000 rpm for 10 minutes. A supernatant was taken for subsequent determination. […]

Slc25a46−/− mice [4] = assay: NAMPT enzyme activity in liver tissues (ELISA kit); type: in vivo, mouse; conditions: intragastric every day for 10 days, Example 400, Comparative example 1 100, 2 244, 3 56, 4 500 mg/kg
Experimental: A certain amount of liver tissues of the mice were homogenized, and a supernatant was taken. […] Marker wells, blank wells and sample wells were provided, 50 μL of markers with different concentrations were added into the marker wells, 50 μL of to-be-tested sample was added into the sample wells, and 50 μL of sample diluent was added into the blank wells. […] 50 μL of substrate A and 50 μL of substrate B were respectively added into each well, and an OD value of each well at a wavelength of 450 nm was measured within 15 minutes. Data was recorded, and statistical analysis was made with Prism software.

[5] = high concentration (1,000 μg/mL to 2,000 μg/mL)

With NC(=O)c1cccnc1 [Comparative example 4, nicotinamide] the “effect on cell morphology” value ([1]; Slc25a46−/− MEF cells, up to 2,000 μg/mL) was “no effect on the cell morphology”, the “effect on cell viability/growth (MTT)” value ([1]; 125 μg/mL to 2,000 μg/mL) was “no effect on the viability of the Slc25a46−/− cells and a viability of the WT cells” and the “effect on cell viability/growth (MTT)” value [1, 5] was “promotes growth of the Slc25a46−/− cells and the WT cells, without a concentration effect”. For the same molecule, the “effect on cell morphology” value ([2]; WT MEF cells, up to 2,000 μg/mL) was “no effect on the cell morphology”, the “effect on cell viability/growth (MTT)” value ([2]; 125 μg/mL to 2,000 μg/mL) was “no effect on the viability of the Slc25a46−/− cells and a viability of the WT cells” and the “effect on cell viability/growth (MTT)” value [2, 5] was “promotes growth of the Slc25a46−/− cells and the WT cells, without a concentration effect; also recorded: promote proliferation of the WT cells”. For the same molecule, the “SOD enzyme activity-Liver tissue” value (Slc25a46−/− mice [3]) was 2.22 ± 0.02 U/mgprot and the “NAMPT enzyme activity-Liver tissue” value (Slc25a46−/− mice [4]) was 0.32 ± 0.01 ng/mg protein.
